Here are results for one compound from ChEMBL document CHEMBL1138125, “A new chemical tool for exploring the role of the PDE4D isozyme in leukocyte function” (Bioorg Med Chem Lett, 2006).

One assay has as its target Phosphodiesterase 3 (Homo sapiens, UniProt Q14432+Q13370). Briefly: Inhibition of PDE3. The assay is classed as protein assay.
Assay [1] deals with High affinity cGMP-specific 3',5'-cyclic phosphodiesterase 9A (Homo sapiens, UniProt O76083). Description: Inhibition of PDE9.
The target in assay [2] is High affinity cAMP-specific and IBMX-insensitive 3',5'-cyclic phosphodiesterase 8B (Homo sapiens, UniProt O95263). Description: Inhibition of PDE8B.
Sequence of High affinity cAMP-specific and IBMX-insensitive 3',5'-cyclic phosphodiesterase 8B (O95263 whole entry): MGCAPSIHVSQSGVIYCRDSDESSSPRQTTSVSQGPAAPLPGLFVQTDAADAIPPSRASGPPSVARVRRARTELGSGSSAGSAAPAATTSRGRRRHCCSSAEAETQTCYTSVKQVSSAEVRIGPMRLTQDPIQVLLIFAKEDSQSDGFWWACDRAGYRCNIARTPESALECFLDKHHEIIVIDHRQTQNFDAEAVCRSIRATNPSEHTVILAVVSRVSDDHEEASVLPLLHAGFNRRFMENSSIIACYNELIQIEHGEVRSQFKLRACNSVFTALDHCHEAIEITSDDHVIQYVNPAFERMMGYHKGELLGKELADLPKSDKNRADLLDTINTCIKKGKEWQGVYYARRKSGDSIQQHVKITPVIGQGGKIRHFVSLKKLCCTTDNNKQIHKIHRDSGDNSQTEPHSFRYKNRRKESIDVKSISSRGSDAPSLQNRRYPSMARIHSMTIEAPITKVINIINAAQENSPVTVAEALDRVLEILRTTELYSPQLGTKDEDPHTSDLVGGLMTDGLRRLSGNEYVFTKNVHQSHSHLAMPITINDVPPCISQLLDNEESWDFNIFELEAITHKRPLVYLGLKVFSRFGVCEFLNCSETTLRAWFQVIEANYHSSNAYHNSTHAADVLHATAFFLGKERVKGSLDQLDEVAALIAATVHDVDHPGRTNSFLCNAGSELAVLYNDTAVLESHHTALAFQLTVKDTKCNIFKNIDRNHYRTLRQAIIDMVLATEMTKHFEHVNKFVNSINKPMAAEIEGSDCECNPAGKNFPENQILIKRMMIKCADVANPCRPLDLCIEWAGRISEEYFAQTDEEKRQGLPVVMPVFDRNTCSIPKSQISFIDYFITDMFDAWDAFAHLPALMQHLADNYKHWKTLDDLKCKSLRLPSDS
The target in assay [3] is Dual 3',5'-cyclic-AMP and -GMP phosphodiesterase 11A (Homo sapiens, UniProt Q9HCR9). Description: Inhibition of PDE11.
Sequence of Dual 3',5'-cyclic-AMP and -GMP phosphodiesterase 11A (Q9HCR9 whole entry): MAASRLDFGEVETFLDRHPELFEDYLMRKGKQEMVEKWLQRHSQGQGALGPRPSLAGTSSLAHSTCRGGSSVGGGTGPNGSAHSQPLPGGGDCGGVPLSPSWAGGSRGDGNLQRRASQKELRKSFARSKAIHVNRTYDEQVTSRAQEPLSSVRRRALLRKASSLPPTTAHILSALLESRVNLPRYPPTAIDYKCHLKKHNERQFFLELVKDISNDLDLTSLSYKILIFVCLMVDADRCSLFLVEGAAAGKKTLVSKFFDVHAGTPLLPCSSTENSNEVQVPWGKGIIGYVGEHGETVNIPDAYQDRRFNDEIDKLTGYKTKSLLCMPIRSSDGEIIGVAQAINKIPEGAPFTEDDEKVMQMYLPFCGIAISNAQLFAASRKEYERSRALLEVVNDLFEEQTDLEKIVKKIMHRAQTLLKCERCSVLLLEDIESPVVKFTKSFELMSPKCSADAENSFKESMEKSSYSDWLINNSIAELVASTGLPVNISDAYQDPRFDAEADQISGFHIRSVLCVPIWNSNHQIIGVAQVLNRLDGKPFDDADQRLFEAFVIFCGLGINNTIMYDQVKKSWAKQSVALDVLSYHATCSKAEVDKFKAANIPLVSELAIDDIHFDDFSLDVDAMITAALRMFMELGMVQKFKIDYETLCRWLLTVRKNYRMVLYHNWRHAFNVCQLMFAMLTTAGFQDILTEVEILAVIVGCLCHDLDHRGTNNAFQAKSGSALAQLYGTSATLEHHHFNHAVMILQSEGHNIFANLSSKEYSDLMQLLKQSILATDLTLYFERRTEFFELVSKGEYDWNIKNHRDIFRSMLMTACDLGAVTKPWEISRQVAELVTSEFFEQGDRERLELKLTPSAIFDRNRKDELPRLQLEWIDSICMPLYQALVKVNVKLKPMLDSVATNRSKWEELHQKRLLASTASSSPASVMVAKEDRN
Assay [4] concerns the target 3',5'-cyclic-AMP phosphodiesterase 4D (Homo sapiens, UniProt Q08499). Conditions: Blood.
Description: Inhibition of release of Eosinophil derived neurotoxin in human whole blood
Assay [5] concerns the target cGMP-dependent 3',5'-cyclic phosphodiesterase (Homo sapiens, UniProt O00408). Description: Inhibition of PDE2.
For assay [6], the target named is High affinity cAMP-specific and IBMX-insensitive 3',5'-cyclic phosphodiesterase 8A (Homo sapiens, UniProt O60658). Briefly: Inhibition of PDE8A.
Sequence of High affinity cAMP-specific and IBMX-insensitive 3',5'-cyclic phosphodiesterase 8A (O60658 whole entry): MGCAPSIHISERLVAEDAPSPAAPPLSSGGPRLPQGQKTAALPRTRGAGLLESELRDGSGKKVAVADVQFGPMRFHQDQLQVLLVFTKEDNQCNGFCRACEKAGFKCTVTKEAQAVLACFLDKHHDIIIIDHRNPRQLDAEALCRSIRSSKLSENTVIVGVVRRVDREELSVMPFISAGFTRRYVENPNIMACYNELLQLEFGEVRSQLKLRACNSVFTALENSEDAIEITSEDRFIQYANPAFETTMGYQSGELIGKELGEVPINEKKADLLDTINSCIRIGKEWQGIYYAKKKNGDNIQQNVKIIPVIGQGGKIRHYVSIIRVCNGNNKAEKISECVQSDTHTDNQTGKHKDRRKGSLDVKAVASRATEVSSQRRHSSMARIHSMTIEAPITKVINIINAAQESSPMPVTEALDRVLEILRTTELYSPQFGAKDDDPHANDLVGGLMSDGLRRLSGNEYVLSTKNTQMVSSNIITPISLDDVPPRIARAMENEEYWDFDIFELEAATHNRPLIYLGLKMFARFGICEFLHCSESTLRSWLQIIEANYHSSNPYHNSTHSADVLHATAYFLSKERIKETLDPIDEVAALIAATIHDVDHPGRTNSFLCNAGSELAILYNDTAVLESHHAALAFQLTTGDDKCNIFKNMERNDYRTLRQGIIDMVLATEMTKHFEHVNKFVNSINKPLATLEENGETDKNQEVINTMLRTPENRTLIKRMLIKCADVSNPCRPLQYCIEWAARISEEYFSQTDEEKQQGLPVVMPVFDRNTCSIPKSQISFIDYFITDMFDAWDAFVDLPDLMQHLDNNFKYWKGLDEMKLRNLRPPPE

Sequence of 3',5'-cyclic-AMP phosphodiesterase 4D (Q08499 whole entry): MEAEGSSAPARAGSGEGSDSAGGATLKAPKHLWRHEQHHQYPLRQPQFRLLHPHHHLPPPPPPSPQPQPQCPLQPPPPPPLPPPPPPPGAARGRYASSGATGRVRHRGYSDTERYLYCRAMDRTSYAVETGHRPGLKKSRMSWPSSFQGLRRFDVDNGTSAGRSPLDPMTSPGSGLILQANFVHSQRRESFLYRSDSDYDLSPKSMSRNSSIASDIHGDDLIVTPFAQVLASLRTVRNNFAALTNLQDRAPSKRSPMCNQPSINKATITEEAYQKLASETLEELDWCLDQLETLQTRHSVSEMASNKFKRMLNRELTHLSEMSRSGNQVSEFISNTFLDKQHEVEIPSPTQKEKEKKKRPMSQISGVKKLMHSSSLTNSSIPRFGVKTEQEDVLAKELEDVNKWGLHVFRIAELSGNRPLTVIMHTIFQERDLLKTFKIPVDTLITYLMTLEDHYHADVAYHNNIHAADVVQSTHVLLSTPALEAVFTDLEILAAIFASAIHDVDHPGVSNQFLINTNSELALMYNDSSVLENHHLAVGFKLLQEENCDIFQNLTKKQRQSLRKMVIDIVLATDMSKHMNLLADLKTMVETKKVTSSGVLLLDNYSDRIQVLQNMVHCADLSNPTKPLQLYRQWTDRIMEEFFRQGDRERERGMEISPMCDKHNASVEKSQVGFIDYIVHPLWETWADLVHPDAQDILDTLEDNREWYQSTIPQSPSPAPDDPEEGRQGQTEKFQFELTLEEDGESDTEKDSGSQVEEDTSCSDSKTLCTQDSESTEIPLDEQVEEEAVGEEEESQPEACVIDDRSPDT
Sequence of cGMP-dependent 3',5'-cyclic phosphodiesterase (O00408 whole entry): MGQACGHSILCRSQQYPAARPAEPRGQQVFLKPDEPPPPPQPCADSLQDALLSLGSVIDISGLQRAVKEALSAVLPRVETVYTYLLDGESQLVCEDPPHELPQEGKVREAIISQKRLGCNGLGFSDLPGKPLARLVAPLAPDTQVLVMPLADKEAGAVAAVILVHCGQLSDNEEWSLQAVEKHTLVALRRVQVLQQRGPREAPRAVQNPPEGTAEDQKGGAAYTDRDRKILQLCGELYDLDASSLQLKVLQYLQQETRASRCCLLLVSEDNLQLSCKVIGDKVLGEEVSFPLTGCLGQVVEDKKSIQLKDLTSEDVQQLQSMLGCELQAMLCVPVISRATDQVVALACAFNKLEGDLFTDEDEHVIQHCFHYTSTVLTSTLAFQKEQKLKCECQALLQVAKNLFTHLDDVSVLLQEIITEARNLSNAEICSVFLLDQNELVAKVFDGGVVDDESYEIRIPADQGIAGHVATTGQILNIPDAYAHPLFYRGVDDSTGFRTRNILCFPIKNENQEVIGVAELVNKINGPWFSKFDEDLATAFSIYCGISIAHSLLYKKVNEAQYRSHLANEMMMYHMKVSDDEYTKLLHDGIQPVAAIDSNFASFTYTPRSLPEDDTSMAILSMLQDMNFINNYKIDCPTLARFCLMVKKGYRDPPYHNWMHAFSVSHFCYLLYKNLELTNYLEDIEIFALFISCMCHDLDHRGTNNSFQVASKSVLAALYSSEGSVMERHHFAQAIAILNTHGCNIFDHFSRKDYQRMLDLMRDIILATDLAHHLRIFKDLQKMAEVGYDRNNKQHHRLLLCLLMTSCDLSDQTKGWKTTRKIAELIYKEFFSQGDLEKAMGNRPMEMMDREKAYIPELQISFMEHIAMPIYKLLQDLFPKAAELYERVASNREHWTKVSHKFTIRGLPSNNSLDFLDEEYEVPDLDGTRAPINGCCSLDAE
Sequence of High affinity cGMP-specific 3',5'-cyclic phosphodiesterase 9A (O76083 whole entry): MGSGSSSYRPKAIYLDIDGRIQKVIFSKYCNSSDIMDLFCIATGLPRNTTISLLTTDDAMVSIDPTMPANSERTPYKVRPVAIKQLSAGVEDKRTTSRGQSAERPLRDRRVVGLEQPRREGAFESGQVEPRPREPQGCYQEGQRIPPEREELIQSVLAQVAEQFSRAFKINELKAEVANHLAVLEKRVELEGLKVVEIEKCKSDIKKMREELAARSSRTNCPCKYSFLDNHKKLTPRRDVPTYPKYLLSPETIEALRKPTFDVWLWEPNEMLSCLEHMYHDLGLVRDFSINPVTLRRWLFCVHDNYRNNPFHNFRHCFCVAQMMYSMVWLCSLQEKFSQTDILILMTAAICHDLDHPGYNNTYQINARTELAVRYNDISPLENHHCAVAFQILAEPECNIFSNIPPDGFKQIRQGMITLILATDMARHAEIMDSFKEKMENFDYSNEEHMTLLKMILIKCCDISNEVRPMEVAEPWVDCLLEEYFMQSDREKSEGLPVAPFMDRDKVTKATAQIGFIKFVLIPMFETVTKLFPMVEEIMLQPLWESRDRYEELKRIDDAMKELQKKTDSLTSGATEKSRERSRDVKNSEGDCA

In the case of `COc1ccc(C2CNC(=O)C2)cc1OC1CCCC1` (configuration not stated) [ROLIPRAM], the IC50 (against Phosphodiesterase 3; in assay [1]; in assay [2]; in assay [3]; in assay [5]; in assay [6]) was > 16 µM each time. In addition, in assay [4], the IC30 (commonly the concentration needed for an effect of 30%) came out at 283 nM.
